The values that follow come from ChEMBL document CHEMBL1152211, “Structure-activity study at positions 3 and 4 of human neuropeptide S” (Bioorg Med Chem, 2008).

For one assay, the target named is T1, Neuropeptide S receptor (Mus musculus, UniProt Q8BZP8).
T1 sequence (Q8BZP8 whole entry): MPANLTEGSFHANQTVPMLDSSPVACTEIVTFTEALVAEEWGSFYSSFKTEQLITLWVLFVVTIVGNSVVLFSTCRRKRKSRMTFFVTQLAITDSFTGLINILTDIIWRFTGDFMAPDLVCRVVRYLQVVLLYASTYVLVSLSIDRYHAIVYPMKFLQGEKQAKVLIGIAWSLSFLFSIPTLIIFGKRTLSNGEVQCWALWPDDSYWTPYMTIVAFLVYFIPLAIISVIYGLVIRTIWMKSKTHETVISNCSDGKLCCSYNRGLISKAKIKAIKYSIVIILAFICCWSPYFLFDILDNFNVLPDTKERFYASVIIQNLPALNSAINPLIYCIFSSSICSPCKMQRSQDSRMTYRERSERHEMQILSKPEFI
The assay can be described thus: Agonist activity at mouse NPSR expressed in HEK293 cells assessed as increase in intracellular calcium mobilization by FLIPR. It counts as functional, cell-based. Background: Calcium flux is commonly read through the fluorescence of an indicator in the cells.

The target in assay [1] is T2, Neuropeptide S receptor (Mus musculus) (UniProt Q8BZP8).
T2 sequence (whole entry): T1 sequence (Q8BZP8 whole entry)
Briefly: Agonist activity at mouse NPSR expressed in HEK293 cells assessed as increase in intracellular calcium mobilization by FLIPR relative to baseline. The class given is functional, cell-based.

Structures can show the parent of a compound that is named as a salt. Non-standard residues stand in square brackets, D forms with d. Residues, ends and D or L forms follow the SMILES beside them. *: point of attachment. Arg(NO2) = N=C(NCCC[C@H](N)C(=O)O)N[N+](=O)[O-]; Orn = NCCC[C@H](N)C(=O)O; Dab = NCC[C@H](N)C(=O)O; Nva = CCC[C@H](N)C(=O)O; Abu = CC[C@H](N)C(=O)O; Dap = NC[C@H](N)C(=O)O; Tfa = O=C(C(F)(F)F)*

As a reminder, the EC50 is the midpoint of the concentration-response curve. What is called Emax is the greatest response seen or fitted, relative to the assay's reference. Take `CC[C@H](NC(=O)[C@H](Cc1ccccc1)NC(=O)[C@@H](N)CO)C(=O)N[C@@H](CC(N)=O)C(=O)NCC(=O)N[C@H](C(=O)NCC(=O)N[C@H](C(=O)NCC(=O)N[C@@H](CCSC)C(=O)N[C@@H](CCCCN)C(=O)N[C@@H](CCCCN)C(=O)N[C@H](C(=O)N[C@@H](CO)C(=O)N[C@@H](Cc1ccccc1)C(=O)N[C@@H](CCC(N)=O)C(=O)N[C@@H](CCCNC(=N)N)C(=O)N[C@@H](C)C(=O)N[C@@H](CCCCN)C(=O)N[C@@H](CO)C(=O)O)[C@@H](C)O)[C@@H](C)O)C(C)C` (H-SF[Abu]NGVGTGMKKTSFQRAKS-OH): the EC50 on Neuropeptide S receptor is 513 nM. Moreover, in assay [1], the Emax turned out to be 218%.
Consider H-SFQNGVGTGMKKTSFQRAKS-OH, for which the EC50 on Neuropeptide S receptor was 129 nM. Also, the Emax in assay [1] was 295%.
The like results for `CSCC[C@H](NC(=O)CNC(=O)[C@@H](NC(=O)CNC(=O)[C@@H](NC(=O)CNC(=O)[C@H](CC(N)=O)NC(=O)[C@H](CCN)NC(=O)[C@H](Cc1ccccc1)NC(=O)[C@@H](N)CO)C(C)C)[C@@H](C)O)C(=O)N[C@@H](CCCCN)C(=O)N[C@@H](CCCCN)C(=O)N[C@H](C(=O)N[C@@H](CO)C(=O)N[C@@H](Cc1ccccc1)C(=O)N[C@@H](CCC(N)=O)C(=O)N[C@@H](CCCNC(=N)N)C(=O)N[C@@H](C)C(=O)N[C@@H](CCCCN)C(=O)N[C@@H](CO)C(=O)O)[C@@H](C)O` (H-SF[Dab]NGVGTGMKKTSFQRAKS-OH) were, in that order, 204 nM and 207%.
Taken in the same sequence, the figures for `CCC[C@H](NC(=O)[C@H](Cc1ccccc1)NC(=O)[C@@H](N)CO)C(=O)N[C@@H](CC(N)=O)C(=O)NCC(=O)N[C@H](C(=O)NCC(=O)N[C@H](C(=O)NCC(=O)N[C@@H](CCSC)C(=O)N[C@@H](CCCCN)C(=O)N[C@@H](CCCCN)C(=O)N[C@H](C(=O)N[C@@H](CO)C(=O)N[C@@H](Cc1ccccc1)C(=O)N[C@@H](CCC(N)=O)C(=O)N[C@@H](CCCNC(=N)N)C(=O)N[C@@H](C)C(=O)N[C@@H](CCCCN)C(=O)N[C@@H](CO)C(=O)O)[C@@H](C)O)[C@@H](C)O)C(C)C` (H-SF[Nva]NGVGTGMKKTSFQRAKS-OH) were 135 nM and 207%.
The like results for H-SFKNGVGTGMKKTSFQRAKS-OH were, in that order, 18.2 nM and 290%.
For `CSCC[C@H](NC(=O)CNC(=O)[C@@H](NC(=O)CNC(=O)[C@@H](NC(=O)CNC(=O)[C@H](CC(N)=O)NC(=O)[C@H](CCCN/C(N)=N/[N+](=O)[O-])NC(=O)[C@H](Cc1ccccc1)NC(=O)[C@@H](N)CO)C(C)C)[C@@H](C)O)C(=O)N[C@@H](CCCCN)C(=O)N[C@@H](CCCCN)C(=O)N[C@H](C(=O)N[C@@H](CO)C(=O)N[C@@H](Cc1ccccc1)C(=O)N[C@@H](CCC(N)=O)C(=O)N[C@@H](CCCNC(=N)N)C(=O)N[C@@H](C)C(=O)N[C@@H](CCCCN)C(=O)N[C@@H](CO)C(=O)O)[C@@H](C)O` (H-SF[Arg(NO2)]NGVGTGMKKTSFQRAKS-OH), on Neuropeptide S receptor, the EC50 was 21.9 nM. Further, the Emax in assay [1] was 288%.
Taken in the same sequence, the figures for `CSCC[C@H](NC(=O)CNC(=O)[C@@H](NC(=O)CNC(=O)[C@@H](NC(=O)CNC(=O)[C@H](CC(N)=O)NC(=O)[C@H](CCCN)NC(=O)[C@H](Cc1ccccc1)NC(=O)[C@@H](N)CO)C(C)C)[C@@H](C)O)C(=O)N[C@@H](CCCCN)C(=O)N[C@@H](CCCCN)C(=O)N[C@H](C(=O)N[C@@H](CO)C(=O)N[C@@H](Cc1ccccc1)C(=O)N[C@@H](CCC(N)=O)C(=O)N[C@@H](CCCNC(=N)N)C(=O)N[C@@H](C)C(=O)N[C@@H](CCCCN)C(=O)N[C@@H](CO)C(=O)O)[C@@H](C)O` (H-SF[Orn]NGVGTGMKKTSFQRAKS-OH) were 31.6 nM and 318%.
Taken in the same sequence, the figures for H-SFGNGVGTGMKKTSFQRAKS-OH were 1260 nM and 264%.
Consider `CSCC[C@H](NC(=O)CNC(=O)[C@@H](NC(=O)CNC(=O)[C@@H](NC(=O)CNC(=O)[C@H](CC(N)=O)NC(=O)[C@H](CN)NC(=O)[C@H](Cc1ccccc1)NC(=O)[C@@H](N)CO)C(C)C)[C@@H](C)O)C(=O)N[C@@H](CCCCN)C(=O)N[C@@H](CCCCN)C(=O)N[C@H](C(=O)N[C@@H](CO)C(=O)N[C@@H](Cc1ccccc1)C(=O)N[C@@H](CCC(N)=O)C(=O)N[C@@H](CCCNC(=N)N)C(=O)N[C@@H](C)C(=O)N[C@@H](CCCCN)C(=O)N[C@@H](CO)C(=O)O)[C@@H](C)O` (H-SF[Dap]NGVGTGMKKTSFQRAKS-OH), for which the EC50 on Neuropeptide S receptor was 240 nM. Besides, the Emax in assay [1] amounted to 196%.
“H-SFRNGVGTGMKKTSFQRAKS-OH [NEUROPEPTIDE S]”: the EC50 at Neuropeptide S receptor is 12 nM. For the same compound, the Emax in assay [1] was 234%.
Taken in the same sequence, the figures for H-SFRQGVGTGMKKTSFQRAKS-OH were 562 nM and 210%.
Taken in the same sequence, the figures for H-SFRTGVGTGMKKTSFQRAKS-OH were 102 nM and 253%.
As for `CSCC[C@H](NC(=O)CNC(=O)[C@@H](NC(=O)CNC(=O)[C@@H](NC(=O)CNC(=O)[C@H](CC(N)=O)NC(=O)[C@H](CCCCNC(=O)C(F)(F)F)NC(=O)[C@H](Cc1ccccc1)NC(=O)[C@@H](N)CO)C(C)C)[C@@H](C)O)C(=O)N[C@@H](CCCCN)C(=O)N[C@@H](CCCCN)C(=O)N[C@H](C(=O)N[C@@H](CO)C(=O)N[C@@H](Cc1ccccc1)C(=O)N[C@@H](CCC(N)=O)C(=O)N[C@@H](CCCNC(=N)N)C(=O)N[C@@H](C)C(=O)N[C@@H](CCCCN)C(=O)N[C@@H](CO)C(=O)O)[C@@H](C)O` (H-SFK(Tfa)NGVGTGMKKTSFQRAKS-OH), the EC50 at Neuropeptide S receptor is 85.1 nM. Further, in assay [1], the Emax is 231%.
